Results: publication PMC5218480 (PLoS ONE, 2017)

Tested on: MV-4-11 cells
Experiment: Gene expression microarray analysis (Affymetrix PrimeView) and GSEA
Type: cell-based, human
Design: RFU PODN (11730768_x_at) / Fold change /veh PODN (11730768_x_at) / RFU LINC00158 (11744669_a_at) / Fold change /veh LINC00158 (11744669_a_at) / RFU DUSP10 (11751237_a_at) / Fold change /veh DUSP10 (11751237_a_at) / RFU ID3 (11757404_x_at) / Fold change /veh ID3 (11757404_x_at) / RFU PLEKHG5 (11737974_s_at) / Fold change /veh PLEKHG5 (11737974_s_at) / RFU LRRC4B (11730491_at) / Fold change /veh LRRC4B (11730491_at) / RFU GIMAP4 (11747438_a_at) / Fold change /veh GIMAP4 (11747438_a_at) / RFU KRT8 (11758183_x_at) / Fold change /veh KRT8 (11758183_x_at) / RFU CNN1 (11734310_a_at) / Fold change /veh CNN1 (11734310_a_at) / RFU VPS37D (11726825_at) / Fold change /veh VPS37D (11726825_at) / RFU C10orf10 (11716522_x_at) / Fold change /veh C10orf10 (11716522_x_at) / RFU KIR2DL2 /// KIR2DL4 /// KIR2DL5A /// KIR2DL5B /// KIR2DS1 /// KIR2DS2 /// KIR2DS3 /// KIR2DS4 /// KIR3DL3 /// KIR3DL3 /// KIR3DS1 (11738374_at) / Fold change /veh KIR2DL2 /// KIR2DL4 /// KIR2DL5A /// KIR2DL5B /// KIR2DS1 /// KIR2DS2 /// KIR2DS3 /// KIR2DS4 /// KIR3DL3 /// KIR3DL3 /// KIR3DS1 (11738374_at) / RFU C1QL1 (11718748_at) / Fold change /veh C1QL1 (11718748_at) / RFU TMPRSS4 (11747572_a_at) / Fold change /veh TMPRSS4 (11747572_a_at) / RFU HAMP (11756126_x_at) / Fold change /veh HAMP (11756126_x_at) / RFU RNFT2 (11725882_a_at) / Fold change /veh RNFT2 (11725882_a_at) / RFU NR4A2 (11747474_a_at) / Fold change /veh NR4A2 (11747474_a_at) / RFU ABCC12 (11746883_a_at) / Fold change /veh ABCC12 (11746883_a_at) / RFU TMEM136 (11760407_x_at) / Fold change /veh TMEM136 (11760407_x_at) / RFU CLDN22 /// WWC2 (11732394_at) / Fold change /veh CLDN22 /// WWC2 (11732394_at) / RFU HLA-DPB1 (11760878_x_at) / Fold change /veh HLA-DPB1 (11760878_x_at) / RFU SPINT1 (11716480_a_at) / Fold change /veh SPINT1 (11716480_a_at) / RFU GAP43 (11754022_s_at) / Fold change /veh GAP43 (11754022_s_at) / RFU A4GNT (11735810_at) / Fold change /veh A4GNT (11735810_at) / RFU PRB3 (11715151_x_at) / Fold change /veh PRB3 (11715151_x_at) / RFU TUBB4B (11761932_at) / Fold change /veh TUBB4B (11761932_at) / RFU CAPN14 (11732068_a_at) / Fold change /veh CAPN14 (11732068_a_at) / RFU TMCC2 (11721928_a_at) / Fold change /veh TMCC2 (11721928_a_at) / RFU IRGQ (11745062_a_at) / Fold change /veh IRGQ (11745062_a_at) / RFU FAM174B (11720279_a_at) / Fold change /veh FAM174B (11720279_a_at) / RFU TMPRSS4 (11748680_a_at) / Fold change /veh TMPRSS4 (11748680_a_at) / RFU FAM212B (11763350_a_at) / Fold change /veh FAM212B (11763350_a_at) / RFU PLEKHG5 (11743358_a_at) / Fold change /veh PLEKHG5 (11743358_a_at) / RFU ZSCAN30 (11745921_a_at) / Fold change /veh ZSCAN30 (11745921_a_at) / RFU CMKLR1 (11741424_a_at) / Fold change /veh CMKLR1 (11741424_a_at) / RFU LOC101060620 /// MAPK8IP1 (11723275_at) / Fold change /veh LOC101060620 /// MAPK8IP1 (11723275_at) / RFU SPTSSB (11747773_x_at) / Fold change /veh SPTSSB (11747773_x_at) / RFU PRSS12 (11739890_at) / Fold change /veh PRSS12 (11739890_at) / RFU BIN1 (11741810_x_at) / Fold change /veh BIN1 (11741810_x_at) / RFU WNT11 (11732464_a_at) / Fold change /veh WNT11 (11732464_a_at) / RFU C10orf10 (11716521_a_at) / Fold change /veh C10orf10 (11716521_a_at) / RFU C5orf56 (11738089_at) / Fold change /veh C5orf56 (11738089_at) / RFU CYB561 (11721691_x_at) / Fold change /veh CYB561 (11721691_x_at) / RFU ANKRD19P (11752326_a_at) / Fold change /veh ANKRD19P (11752326_a_at) / RFU OR2T12 /// OR2T33 /// OR2T8 (11738714_s_at) / Fold change /veh OR2T12 /// OR2T33 /// OR2T8 (11738714_s_at) / RFU VCAN (11748164_a_at) / Fold change /veh VCAN (11748164_a_at) / RFU JSRP1 (11732532_at) / Fold change /veh JSRP1 (11732532_at) / RFU KRTAP10-11 (11738290_x_at) / Fold change /veh KRTAP10-11 (11738290_x_at) / RFU MYO3A (11730013_a_at) / Fold change /veh MYO3A (11730013_a_at) / RFU EBF3 (11725865_a_at) / Fold change /veh EBF3 (11725865_a_at) / RFU CAMK2N1 (11719241_x_at) / Fold change /veh CAMK2N1 (11719241_x_at) / RFU C5orf56 (11738088_a_at) / Fold change /veh C5orf56 (11738088_a_at) / RFU OLFML3 (11715873_a_at) / Fold change /veh OLFML3 (11715873_a_at) / RFU LOC100653217 /// NTM (11731650_a_at) / Fold change /veh LOC100653217 /// NTM (11731650_a_at) / RFU MAPK11 (11762145_a_at) / Fold change /veh MAPK11 (11762145_a_at) / RFU FIZ1 (11724087_x_at) / Fold change /veh FIZ1 (11724087_x_at) / RFU OASL (11726364_x_at) / Fold change /veh OASL (11726364_x_at) / RFU SOX15 (11748057_x_at) / Fold change /veh SOX15 (11748057_x_at) / RFU CD79A (11719716_a_at) / Fold change /veh CD79A (11719716_a_at) / RFU HIST1H1D (11736915_at) / Fold change /veh HIST1H1D (11736915_at) / RFU CASKIN2 (11723855_a_at) / Fold change /veh CASKIN2 (11723855_a_at) / RFU LOC730098 (11760151_x_at) / Fold change /veh LOC730098 (11760151_x_at) / RFU OR4N2 (11742367_at) / Fold change /veh OR4N2 (11742367_at) / RFU PRRT2 (11749266_a_at) / Fold change /veh PRRT2 (11749266_a_at) / RFU SNX32 (11753110_a_at) / Fold change /veh SNX32 (11753110_a_at) / RFU CDHR5 (11726645_a_at) / Fold change /veh CDHR5 (11726645_a_at) / RFU RCAN1 (11760418_a_at) / Fold change /veh RCAN1 (11760418_a_at) / RFU FAM167A (11723789_a_at) / Fold change /veh FAM167A (11723789_a_at) / RFU FAM26E (11764081_at) / Fold change /veh FAM26E (11764081_at) / RFU ISYNA1 (11749810_s_at) / Fold change /veh ISYNA1 (11749810_s_at) / RFU ACY1 (11761880_at) / Fold change /veh ACY1 (11761880_at) / RFU 11764098_at / Fold change /veh 11764098_at / RFU SAMD14 (11745864_x_at) / Fold change /veh SAMD14 (11745864_x_at) / RFU NPB (11741838_a_at) / Fold change /veh NPB (11741838_a_at) / RFU TMPRSS6 (11731388_a_at) / Fold change /veh TMPRSS6 (11731388_a_at) / RFU KRTAP10-2 (11738614_at) / Fold change /veh KRTAP10-2 (11738614_at) / RFU ARHGAP8 /// PRR5-ARHGAP8 (11727945_x_at) / Fold change /veh ARHGAP8 /// PRR5-ARHGAP8 (11727945_x_at) / RFU KRTAP5-7 /// NADSYN1 (11734609_at) / Fold change /veh KRTAP5-7 /// NADSYN1 (11734609_at) / RFU RASL12 (11751679_a_at) / Fold change /veh RASL12 (11751679_a_at) / RFU CDKN2B (11736163_a_at) / Fold change /veh CDKN2B (11736163_a_at) / RFU PRF1 (11729649_at) / Fold change /veh PRF1 (11729649_at) / RFU, ZNF638 /// ZNF638-IT1 / Fold change vs veh, ZNF638 /// ZNF638-IT1 / RFU, PANK3 / Fold change vs veh, PANK3 / RFU, SH3YL1 / Fold change vs veh, SH3YL1 / RFU, ZEB2 / Fold change vs veh, ZEB2 / RFU, NRIP1 / Fold change vs veh, NRIP1 / RFU, PTTG1IP / Fold change vs veh, PTTG1IP / RFU, CAPN2 / Fold change vs veh, CAPN2 / RFU, MED14 / Fold change vs veh, MED14 / RFU, SNORA58 / Fold change vs veh, SNORA58 / RFU, C1orf63 / Fold change vs veh, C1orf63 / RFU, LRRFIP1 / Fold change vs veh, LRRFIP1 / RFU, NDUFAF7 / Fold change vs veh, NDUFAF7 / RFU, SLC12A2 / Fold change vs veh, SLC12A2 / RFU, IBTK / Fold change vs veh, IBTK / RFU, ESF1 / Fold change vs veh, ESF1 / Fold change vs veh, TMEM50B / RFU, TAOK1 / Fold change vs veh, TAOK1 / RFU, ACBD3 / Fold change vs veh, ACBD3 / RFU, TMA16 / Fold change vs veh, TMA16 / RFU, RWDD3 / Fold change vs veh, RWDD3 / RFU, BCAT1 / Fold change vs veh, BCAT1 / RFU, EDEM3 / Fold change vs veh, EDEM3 / RFU, TMEM33 / Fold change vs veh, TMEM33 / RFU, WDR75 / Fold change vs veh, WDR75 / RFU, AHCTF1 / Fold change vs veh, AHCTF1 / RFU, TFRC / Fold change vs veh, TFRC / RFU, ZDHHC17 / Fold change vs veh, ZDHHC17 / RFU, NOM1 / Fold change vs veh, NOM1 / RFU, ARL8B / Fold change vs veh, ARL8B / RFU, ZBTB11 / Fold change vs veh, ZBTB11 / RFU, TAMM41 / Fold change vs veh, TAMM41 / RFU, KIAA1704 /// LOC100996395 / Fold change vs veh, KIAA1704 /// LOC100996395 / RFU, ING1 / Fold change vs veh, ING1 / RFU, TRMT61B / Fold change vs veh, TRMT61B / RFU, FUBP3 / Fold change vs veh, FUBP3 / RFU, TP53 / Fold change vs veh, TP53 / RFU, TNKS2 / Fold change vs veh, TNKS2 / RFU, ZFP14 / Fold change vs veh, ZFP14 / RFU, ACTR2 / Fold change vs veh, ACTR2 / RFU, PPP3R1 / Fold change vs veh, PPP3R1 / RFU, PIK3R1 / Fold change vs veh, PIK3R1 / RFU, HNRNPA1 / Fold change vs veh, HNRNPA1 / RFU, RNF170 / Fold change vs veh, RNF170 / RFU, ZNF28 / Fold change vs veh, ZNF28 / RFU, RNGTT / Fold change vs veh, RNGTT / RFU, OGT / Fold change vs veh, OGT / RFU, BRD1 / Fold change vs veh, BRD1 / RFU, MARS / Fold change vs veh, MARS / RFU, ZNF655 / Fold change vs veh, ZNF655 / RFU, FAHD1 / Fold change vs veh, FAHD1 / RFU, BDP1 / Fold change vs veh, BDP1 / RFU, LRRCC1 / Fold change vs veh, LRRCC1 / RFU, ARID1A / Fold change vs veh, ARID1A / RFU, ZNF146 / Fold change vs veh, ZNF146 / RFU, ZNF330 / Fold change vs veh, ZNF330 / RFU, GPN3 / Fold change vs veh, GPN3 / RFU, C9orf123 / Fold change vs veh, C9orf123 / RFU, N4BP2L2 / Fold change vs veh, N4BP2L2 / RFU, ARFIP1 / Fold change vs veh, ARFIP1 / RFU, FAM179B / Fold change vs veh, FAM179B / RFU, BCL10 / Fold change vs veh, BCL10 / RFU, UHRF1BP1L / Fold change vs veh, UHRF1BP1L / RFU, BET1 / Fold change vs veh, BET1 / RFU, CNOT2 / Fold change vs veh, CNOT2 / RFU, ZNF268 / Fold change vs veh, ZNF268 / Fold change vs veh, ZNF507 / RFU, DGCR2 / Fold change vs veh, DGCR2 / RFU, WDSUB1 / Fold change vs veh, WDSUB1 / Fold change vs veh, HSP90B1 /// MIR3652 / RFU, ADSS / Fold change vs veh, ADSS / RFU, GK / Fold change vs veh, GK / RFU, ZNF148 / Fold change vs veh, ZNF148 / RFU, TAF9 / Fold change vs veh, TAF9 / RFU, SLC1A5 / Fold change vs veh, SLC1A5 / RFU, SLMO2 / Fold change vs veh, SLMO2 / RFU, ABCC4 / Fold change vs veh, ABCC4 / RFU, LOC101060439 /// RAP1B / Fold change vs veh, LOC101060439 /// RAP1B / RFU, RFX7 / Fold change vs veh, RFX7 / RFU, GTPBP10 / Fold change vs veh, GTPBP10 / RFU, CNEP1R1 / Fold change vs veh, CNEP1R1 / RFU, BIVM-ERCC5 /// ERCC5 / Fold change vs veh, BIVM-ERCC5 /// ERCC5 / RFU, ILF3 / Fold change vs veh, ILF3 / RFU 11762660_at / Fold change /veh 11762660_at / RFU VCAN (11757783_s_at) / Fold change /veh VCAN (11757783_s_at) / RFU DDX43 (11728927_at) / Fold change /veh DDX43 (11728927_at) / RFU KRT8 (11758188_x_at) / Fold change /veh KRT8 (11758188_x_at) / RFU NKD1 (11759106_at) / Fold change /veh NKD1 (11759106_at) / RFU SRD5A1 (11742802_a_at) / Fold change /veh SRD5A1 (11742802_a_at) / RFU TPSAB1 /// TPSB2 (11721975_s_at) / Fold change /veh TPSAB1 /// TPSB2 (11721975_s_at) / RFU GSTM3 (11746129_a_at) / Fold change /veh GSTM3 (11746129_a_at) / RFU IL23R (11737362_x_at) / Fold change /veh IL23R (11737362_x_at) / RFU TMEM51 (11727254_a_at) / Fold change /veh TMEM51 (11727254_a_at) / RFU PIWIL2 (11732686_x_at) / Fold change /veh PIWIL2 (11732686_x_at) / RFU ORM1 (11744905_x_at) / Fold change /veh ORM1 (11744905_x_at) / RFU CCDC152 (11743942_at) / Fold change /veh CCDC152 (11743942_at) / RFU ECM1 (11717891_a_at) / Fold change /veh ECM1 (11717891_a_at) / RFU IL23R (11748794_a_at) / Fold change /veh IL23R (11748794_a_at) / RFU TNFAIP8L3 (11732012_x_at) / Fold change /veh TNFAIP8L3 (11732012_x_at) / RFU MBOAT4 (11741988_at) / Fold change /veh MBOAT4 (11741988_at) / RFU 11764193_at / Fold change /veh 11764193_at / RFU TMEM53 (11763286_at) / Fold change /veh TMEM53 (11763286_at) / RFU MAGEB2 (11727129_at) / Fold change /veh MAGEB2 (11727129_at) / RFU TMEM200A (11744735_a_at) / Fold change /veh TMEM200A (11744735_a_at) / RFU CCDC152 (11751479_a_at) / Fold change /veh CCDC152 (11751479_a_at) / RFU FAM211A (11726209_a_at) / Fold change /veh FAM211A (11726209_a_at) / RFU RGS16 (11746705_a_at) / Fold change /veh RGS16 (11746705_a_at) / RFU VCAN (11755009_s_at) / Fold change /veh VCAN (11755009_s_at) / RFU RHOB (11743442_s_at) / Fold change /veh RHOB (11743442_s_at) / RFU RGS16 (11720943_a_at) / Fold change /veh RGS16 (11720943_a_at) / RFU RGS16 (11720944_at) / Fold change /veh RGS16 (11720944_at) / RFU, VPS4B / Fold change vs veh, VPS4B / RFU, CREB1 / Fold change vs veh, CREB1 / RFU, DNAJC13 / Fold change vs veh, DNAJC13 / RFU, GNAQ / Fold change vs veh, GNAQ / RFU, CDK5R1 / Fold change vs veh, CDK5R1 / RFU, ZRANB3 / Fold change vs veh, ZRANB3 / RFU, CUL4A / Fold change vs veh, CUL4A / RFU, CCNY / Fold change vs veh, CCNY / RFU, UFL1 / Fold change vs veh, UFL1 / RFU, COG3 / Fold change vs veh, COG3 / RFU, DIAPH2 / Fold change vs veh, DIAPH2 / RFU, SKA2 / Fold change vs veh, SKA2 / RFU, AFF3 / Fold change vs veh, AFF3 / RFU, LMF1 / Fold change vs veh, LMF1 / RFU, IPO11 / Fold change vs veh, IPO11 / RFU, DFFB / Fold change vs veh, DFFB / RFU, FOXP1 / Fold change vs veh, FOXP1 / RFU, CARD8 / Fold change vs veh, CARD8 / RFU, STRN3 / Fold change vs veh, STRN3 / RFU, ADK / Fold change vs veh, ADK / RFU, RASSF2 / Fold change vs veh, RASSF2 / RFU, WIPF1 / Fold change vs veh, WIPF1 / RFU, LARP1B / Fold change vs veh, LARP1B / RFU, RASA1 / Fold change vs veh, RASA1 / RFU, RB1 / Fold change vs veh, RB1 / RFU, PPFIA1 / Fold change vs veh, PPFIA1 / RFU, MAT2A / Fold change vs veh, MAT2A / RFU, CCT5 / Fold change vs veh, CCT5 / RFU, WDR92 / Fold change vs veh, WDR92 / RFU, CUX1 / Fold change vs veh, CUX1 / RFU, TTC7A / Fold change vs veh, TTC7A / RFU, TMEM135 / Fold change vs veh, TMEM135 / RFU, DEPTOR / Fold change vs veh, DEPTOR / RFU, CPM / Fold change vs veh, CPM / RFU, DNAJB6 / Fold change vs veh, DNAJB6 / RFU, CACNA2D3 / Fold change vs veh, CACNA2D3 / RFU, DTX4 / Fold change vs veh, DTX4 / RFU, TFCP2 / Fold change vs veh, TFCP2 / RFU, GMCL1 /// GMCL1P1 / Fold change vs veh, GMCL1 /// GMCL1P1 / RFU, AEBP2 / Fold change vs veh, AEBP2 / RFU, SNHG1 /// SNORD22 /// SNORD25 /// SNORD26 /// SNORD27 /// SNORD28 /// SNORD29 /// SNORD31 / Fold change vs veh, SNHG1 /// SNORD22 /// SNORD25 /// SNORD26 /// SNORD27 /// SNORD28 /// SNORD29 /// SNORD31 / Fold change (Aza/veh), C12orf56 (ProbeSet 11735607_a_at) / Fold change (ACY-1035/veh), C12orf56 (ProbeSet 11735607_a_at) / Fold change (Aza/veh), FGFR1OP (ProbeSet 11751329_s_at) / Fold change (ACY-1035/veh), FGFR1OP (ProbeSet 11751329_s_at) / Fold change (Aza/veh), VPS36 (ProbeSet 11739960_a_at) / Fold change (ACY-1035/veh), VPS36 (ProbeSet 11739960_a_at) / RFU SYPL1 (11715823_x_at) / Fold change /veh SYPL1 (11715823_x_at) / RFU IGFBP7 (11715501_s_at) / Fold change /veh IGFBP7 (11715501_s_at) / RFU REEP3 (11722064_at) / Fold change /veh REEP3 (11722064_at) / RFU IGLL1 (11728026_x_at) / Fold change /veh IGLL1 (11728026_x_at): dose or concentration left out as unconfirmed
Conditions: MV-4-11 cells, 48 hours

Structure (SMILES): Nc1ccc(-c2cccs2)cc1NC(=O)c1ccc2c(c1)cc(C1CC1)n2CCN1CCOCC1 [ACY-1035]
- Fold change /veh C10orf10 (11716522_x_at): 1.10
